“Also recorded” adds a separate entry of the source.
How the values were obtained:
Type in all cases: in vivo, mouse
C57BL/6 mice [1] = experiment: High fat diet model of obesity and metabolic syndrome with ursolic acid; conditions: high fat diet containing 0.27% ursolic acid
Method: To test this, C57BL/6 mice were given ad libitum access to a high fat diet (HFD; Teklad TD.93075; 55% calories from fat) lacking or containing 0.27% ursolic acid. After 7 weeks, mice from each group were studied for three days in comprehensive lab animal monitoring systems (“CLAMS”; Columbus Instruments). In the CLAMS, mice were maintained on the same diet they had been eating since the beginning of the experiment. Following CLAMS, tissues were harvested for analysis.
The study was carried out as follows: C57BL/6 mice were given ad libitum access to a high fat diet (“HFD”; Teklad TD.93075; 55% calories from fat) lacking or containing 0.27% ursolic acid. After 5 weeks, mice were fasted for 16 h before blood glucose was measured via the tail vein (FIG. 15A). Normal fasting blood glucose: ≤100 mg/dl. (B-I) After 7 weeks, liver and plasma were harvested for analysis (FIGS. 15B-15H).

[2] = tested on: extensor digitorum longus and peroneus muscles; experiment: Ex vivo specific tetanic force of muscles from mice fed ursolic acid
Source text: Briefly, six-week old male C57BL/6 mice were provided either standard diet or diet containing 0.27% ursolic acid for 16 weeks before being euthanized. The lower hindlimb was removed (by transsecting the upper hindlimb mid-way through the femur), and placed in Krebs solution aerated with 95% 02 and 5% C02. The gastrocnemius, soleus and tibialis anterior muscles, as well as the distal half of the tibia and fibula were then removed and discarded, leaving the extensor digitorum longus and peroneus muscles with their origins and insertions intact. A suture was placed through the proximal tendon and secured to the distal femur fragment. This ex vivo preparation was then mounted vertically in a water jacket bath (Aurora Scientific 1200A Intact Muscle Test System, filled with aerated Krebs solution) by attaching the suture to a servo-controlled lever (superiorly) and clamping the metatarsals (inferiorly). Passive muscle force was adjusted to a baseline of 1 g, and then muscles were stimulated with supramaximal voltage (80 V) at 100 Hz. The mean time from euthanasia to maximal force measurements was 10 min. After force measurements, muscles were removed and weighed in order to calculate specific titanic force. […] Data are means±SEM from 5-6 mice per diet. P-values were determined with a t-test.

C57BL/6 mice [3] = experiment: Denervation-induced skeletal muscle atrophy model
C57BL/6 mice [4] = experiment: Fasting-induced muscle atrophy in mice (i.p. dosing, 24 h fast)
Method: The mice were then fasted, and after 12 hours of fasting, the mice received a second dose of the compound or vehicle. After 24 hours of fasting, the blood glucose was measured and muscles were harvested. The data shown in FIGS. 6C-6H are means±SEM from ≤16 mice per condition. […] The effects of metformin and ursolic acid on fasting-induced muscle atrophy were also examined, i.e. the effect of 24 h fast (relative to ad lib feeding) on wet weight of lower hindlimb skeletal muscle (bilateral tibialis anterior (“TA” muscle), gastrocnemius, and soleus; see FIGS. 6E-6G). […] In FIGS. 6E-6H, each data point represents one mouse and the horizontal bars denote the means. In FIGS. 6C-6H, P-values were determined using unpaired t-tests.
Mice were then fasted, and after 12 hours of fasting, mice received a second dose of ursolic acid, oleanolic acid, or vehicle. After 24 hours of fasting, lower hindlimb skeletal muscles and liver were harvested and weighed.
To test this, food was withdrawn from mice, and then vehicle, ursolic acid (200 mg/kg) or tomatidine (50 mg/kg) were administered by i.p. injection. Twelve hours later, mice received another i.p. injection of vehicle or the same dose of ursolic acid or tomatidine. Twelve hours later, skeletal muscles were harvested and weighed. […] We next used the same protocol to compare the effects of vehicle (corn oil) and tomatidine (5, 15 and 50 mg/kg).

mice [5] = experiment: High fat diet with ursolic acid and/or naringenin; conditions: 5 weeks
Method: To determine this, weight-matched mice were provided ad libitum access to standard (Harlan Teklad formula 7013), high fat diet (HFD; Harlan Teklad formula TD93075), or HFD containing varying concentrations of ursolic acid (0.15%) and/or naringenin (0.5% or 1.5%). After the mice consumed these diets for 5 weeks, fasting blood glucose, total body weight, fat mass, liver weight, grip strength, and skeletal muscle weight was measured.

mice [6] = experiment: Immobilization-induced skeletal muscle atrophy model (stapled tibialis anterior); conditions: i.p. twice daily
Method: To test this, a mouse model of immobilization-induced skeletal muscle atrophy was used: mice were administered vehicle (corn oil) or varying doses of ursolic acid (positive control) or betulinic acid via intraperitoneal injection twice a day for two days. One tibialis anterior (TA) muscle was immobilized with a surgical staple, leaving the contralateral mobile TA as an intra-subject control. The vehicle or the same dose of ursolic acid or betulinic acid was continuously administered via i.p. injection twice daily for six days before comparing weights of the immobile and mobile TAs.
To test this, mice were administered vehicle (corn oil), ursolic acid (200 mg/kg), naringenin (200 mg/kg), or the combination of ursolic acid and naringenin (each at 200 mg/kg) via i.p injection twice a day for two days. One tibialis anterior (TA) muscle was immobilized with a surgical staple, leaving the contralateral mobile TA as an intrasubject control. Vehicle or the same doses of ursolic acid and/or naringenin was continuously administered via i.p. injection twice daily for six days before comparing weights of the immobile and mobile TAs.
To test this, mice were administered vehicle (corn oil) or tomatidine (50, 100 or 200 mg/kg) via i.p injection twice a day for two days. One tibialis anterior (TA) muscle was immobilized with a surgical staple, leaving the contralateral mobile TA as an intrasubject control. Vehicle or the same doses of tomatidine was administered via i.p. injection twice daily for six days before comparing weights of the immobile and mobile TAs. […] The same protocol was used to compare the effects of vehicle (corn oil) and tomatidine (5, 15 or 50 mg/kg) on immobilization-induced muscle atrophy.

[7] = 0.27% ursolic acid diet 16 weeks vs standard diet
[8] = ursolic acid 200 mg/kg i.p. twice, 24 h fast, qPCR, normalized to vehicle
[9] = HFD with ursolic acid 0.15% or naringenin 0.5% or 1.5%

With `C[C@H]1[C@H](C)CC[C@]2(C(=O)O)CC[C@]3(C)C(=CC[C@@H]4[C@@]5(C)CC[C@H](O)C(C)(C)[C@@H]5CC[C@]43C)[C@H]12` [ursolic acid] the weight gain (C57BL/6 mice [1]) was “dramatically reduced weight gain”, the “impaired fasting glucose (pre-diabetes) or diabetes” value (C57BL/6 mice [1]; 5 weeks, 16 h fast) was “prevented” and the “brown fat in scapular fat pad” value (C57BL/6 mice [1]; 7 weeks) was “increased brown fat”. The “energy expenditure (CLAMS)” value (C57BL/6 mice [1]; 7 weeks) was “increased energy expenditure”, the grip strength (C57BL/6 mice [1]; 7 weeks) was “increased grip strength” and the “hepatic changes of fatty liver disease (liver weight, hepatocellular lipid accumulation, plasma AST, ALT, alkaline phosphatase)” value (C57BL/6 mice [1]; 7 weeks) was “prevented all of these hepatic changes”. For the same compound, the muscle mass (C57BL/6 mice [1]; 7 weeks) was “increased”, the “obesity-related hypercholesterolemia (plasma cholesterol)” value (C57BL/6 mice [1]; 7 weeks) was “reduced obesity-related hypercholesterolemia” and the “retroperitoneal and epididymal fat” value (C57BL/6 mice [1]; 7 weeks) was “reduced retroperitoneal and epididymal fat”. For the same compound, the “white fat in scapular fat pad” value (C57BL/6 mice [1]; 7 weeks) was “reduced white fat”, the maximal tetanic force [2, 7] was “did not differ between the two groups” and the “muscle weight (extensor digitorum longus and peroneus)” value [2, 7] was “did not differ between the two groups”. The “specific force generated by muscles ex vivo” value ([2]; 0.27% ursolic acid diet 16 weeks, 80 V, 100 Hz) was “increased the specific force generated by muscles ex vivo”, the “denervated skeletal muscle fiber diameter (gastrocnemius and TA)” value (C57BL/6 mice [3]; ursolic acid 200 mg/kg i.p. twice daily 7 days) was “increase in the size of denervated skeletal muscle fiber diameter” and the “denervation-induced muscle loss (denervated/innervated lower hindlimb muscle weight)” value (C57BL/6 mice [3]; ursolic acid 200 mg/kg i.p. twice daily 7 days after sciatic nerve transsection) was “significantly decreased denervation-induced muscle loss”. For the same compound, the “skeletal muscle weight in fasted mice (fasting-induced muscle atrophy)” value (C57BL/6 mice [4]; i.p. at 0 and 12 h of 24 h fast, vs vehicle, mg/kg: ursolic acid 200, oleanolic acid 200, metformin 250, tomatidine 50, allantoin 2, tacrine 4, ungerine 2, hippeastrine 2, conessine 2) was “increased skeletal muscle weight; also recorded: increased muscle weight in fasted mice”, the fasting blood glucose (C57BL/6 mice [4]; mice, i.p. at 0 and 12 h of 24 h fast, mg/kg: metformin 250, ursolic acid 200, hippeastrine 2, conessine 2) was “significantly reduced fasting blood glucose” and the “increase of muscle weight in fasted mice” value (C57BL/6 mice [4]; ursolic acid 200 mg/kg i.p. twice, 24 h fast, bilateral TA, gastrocnemius and soleus wet weight) was 7±2%. The “MuRF1 mRNA levels in TA muscles of fasted mice” value (C57BL/6 mice [4]; [8]) was “reduced fasting levels”, the “atrogin-1 mRNA levels in TA muscles of fasted mice” value (C57BL/6 mice [4]; [8]) was “reduced fasting levels” and the “fasting blood glucose in high fat fed mice” value (mice [5]; HFD with ursolic acid 0.15% and/or naringenin 0.5% or 1.5%) was “partially prevented”. The “grip strength in high fat fed mice” value (mice [5]; [9]) was “increased strength to a greater extent than naringenin”, the “skeletal muscle weight in high fat fed mice” value (mice [5]; [9]) was “increased muscle weight” and the “dose of maximal inhibition of immobilization-induced muscle atrophy” value (mice [6]) was 200 mg/kg. The “immobilization-induced muscle atrophy (weights of immobile vs mobile TA)” value (mice [6]; 2 days before and 6 days after immobilization, ursolic acid and betulinic acid varying doses, naringenin 200 mg/kg, tomatidine 5-200 mg/kg) was “reduced muscle atrophy in a dose-dependent manner; also recorded: reduces immobilization-induced skeletal muscle atrophy”.

Reference: patent publication US11090313B2, “Methods for inhibiting muscle atrophy” (UNIVERSITY OF IOWA RESEARCH FOUNDATION, priority 2010, dated 2021)
